# Test results published in ChEMBL document CHEMBL1201862, “PubChem BioAssay data set” (2004).
# “And” between values parts separate entries of the source, which are not always exact repeats. Identical values can stand only once.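 Protocol summary: plate cells (96-well), add compound at 5 concentrations, incubate 48 h, interpolate endpoints linearly. Here, GI50 denotes the concentration required for 50% inhibition of growth.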 The source made the active and inactive calls. No stated cut-off is given here; in the data, active = GI50 up to about 1.1 µM and inactive = higher.
# Legend:
# Assay in all cases: growth of human tumour cells (NCI), 48 h
# MDA-MB-231 = tested on: MDA-MB-231
# MCF7 = tested on: MCF7
# UACC-257 = tested on: UACC-257
# NCI/ADR-RES = tested on: NCI/ADR-RES
# T47D = tested on: T47D
# SNB-75 = tested on: SNB-75
# KM12 = tested on: KM12
# OVCAR-3 = tested on: OVCAR-3
# UO-31 = tested on: UO-31
# SF-295 = tested on: SF-295
# NCI-H226 = tested on: NCI-H226
# MDA-MB-435 = tested on: MDA-MB-435
# OVCAR-5 = tested on: OVCAR-5
# SF-268 = tested on: SF-268
# 786-0 = tested on: 786-0
# HCT-15 = tested on: HCT-15
# CCRF-CEM = tested on: CCRF-CEM
# NCI-H522 = tested on: NCI-H522
# SF-539 = tested on: SF-539
# K562 = tested on: K562
# HOP-62 = tested on: HOP-62
# HT-29 = tested on: HT-29
# MDA-N = tested on: MDA-N
# NCI-H23 = tested on: NCI-H23
# HL-60 = tested on: HL-60
# HCT-116 = tested on: HCT-116
# CAKI-1 = tested on: CAKI-1
# TK-10 = tested on: TK-10
# M14 = tested on: M14
# OVCAR-4 = tested on: OVCAR-4
# DU-145 = tested on: DU-145
# NCI-H460 = tested on: NCI-H460
# EKVX = tested on: EKVX
# A498 = tested on: A498
# A549 = tested on: A549
# HCC 2998 = tested on: HCC 2998
# SK-MEL-28 = tested on: SK-MEL-28
# SW-620 = tested on: SW-620
# SK-OV-3 = tested on: SK-OV-3
# PC-3 = tested on: PC-3
# OVCAR-8 = tested on: OVCAR-8
# SNB-19 = tested on: SNB-19
# LOX IMVI = tested on: LOX IMVI
# Malme-3M = tested on: Malme-3M
# RXF 393 = tested on: RXF 393
# IGROV-1 = tested on: IGROV-1
# U-251 = tested on: U-251
# SK-MEL-2 = tested on: SK-MEL-2
# MOLT-4 = tested on: MOLT-4
# SN12C = tested on: SN12C
# COLO 205 = tested on: COLO 205
# ACHN = tested on: ACHN
# UACC-62 = tested on: UACC-62
# HOP-92 = tested on: HOP-92
# SR = tested on: SR
# SK-MEL-5 = tested on: SK-MEL-5
# Hs-578T = tested on: Hs-578T
# RPMI-8226 = tested on: RPMI-8226
smiles,measurement,setting,value
COC(=O)CNC(=O)CSc1nnc(COc2ccc(Cl)cc2)n1-c1ccccc1,GI50,MDA-MB-231,20.5 µM (inactive)
same,GI50,MCF7,79.6 µM (inactive)
same,GI50,UACC-257,29.9 µM (inactive)
same,GI50,NCI/ADR-RES,> 100 µM (inactive)
same,GI50,T47D,26.6 µM (inactive)
same,GI50,SNB-75,17.3 µM (inactive)
same,GI50,KM12,56.9 µM (inactive)
same,GI50,OVCAR-3,71.8 µM (inactive)
same,GI50,UO-31,27.4 µM (inactive)
same,GI50,SF-295,> 100 µM (inactive)
same,GI50,NCI-H226,47.4 µM (inactive)
same,GI50,MDA-MB-435,20.8 µM (inactive)
same,GI50,OVCAR-5,56.1 µM (inactive)
same,GI50,SF-268,22.2 µM (inactive)
same,GI50,786-0,16.1 µM (inactive)
same,GI50,HCT-15,> 100 µM
same,GI50,CCRF-CEM,57.4 µM (inactive)
same,GI50,NCI-H522,15.3 µM (inactive)
same,GI50,SF-539,> 100 µM (inactive)
same,GI50,K562,> 100 µM (inactive)
same,GI50,HOP-62,> 100 µM (inactive)
same,GI50,HT-29,40.6 µM (inactive)
same,GI50,MDA-N,19.2 µM (inactive)
same,GI50,NCI-H23,40.3 µM (inactive)
same,GI50,HL-60,30.1 µM (inactive)
same,GI50,HCT-116,94.4 µM (inactive)
same,GI50,CAKI-1,16.9 µM (inactive)
same,GI50,TK-10,22 µM (inactive)
same,GI50,M14,37.3 µM (inactive)
same,GI50,OVCAR-4,> 100 µM (inactive)
same,GI50,DU-145,16.3 µM (inactive)
same,GI50,NCI-H460,56.8 µM (inactive)
same,GI50,EKVX,> 100 µM (inactive)
same,GI50,A498,> 100 µM (inactive)
same,GI50,A549,> 100 µM (inactive)
same,GI50,HCC 2998,25.3 µM (inactive)
same,GI50,SK-MEL-28,26.6 µM (inactive)
same,GI50,SW-620,43.6 µM (inactive)
same,GI50,SK-OV-3,> 100 µM (inactive)
same,GI50,PC-3,24 µM (inactive)
same,GI50,OVCAR-8,31 µM (inactive)
same,GI50,SNB-19,> 100 µM (inactive)
same,GI50,LOX IMVI,31.3 µM (inactive)
same,GI50,Malme-3M,41.3 µM (inactive)
same,GI50,RXF 393,23.1 µM (inactive)
same,GI50,IGROV-1,21 µM (inactive)
same,GI50,U-251,38.6 µM (inactive)
same,GI50,SK-MEL-2,23.5 µM (inactive)
same,GI50,MOLT-4,64.1 µM (inactive)
same,GI50,SN12C,19.8 µM (inactive)
same,GI50,COLO 205,> 100 µM (inactive)
same,GI50,ACHN,24 µM (inactive)
same,GI50,UACC-62,39.5 µM (inactive)
same,GI50,HOP-92,31.8 µM (inactive)
c1ccc2c3nnc(c2c1)SCCSCCSc1nnc(c2ccccc12)SCCSCCS3,GI50,MDA-MB-231,> 100 µM (inactive)
same,GI50,UACC-257,> 100 µM (inactive)
same,GI50,NCI/ADR-RES,> 100 µM (inactive)
same,GI50,T47D,> 100 µM (inactive)
same,GI50,SNB-75,> 100 µM (inactive)
same,GI50,OVCAR-3,> 100 µM (inactive)
same,GI50,SR,> 100 µM (inactive)
same,GI50,SF-295,> 100 µM (inactive)
same,GI50,SF-268,> 100 µM (inactive)
same,GI50,HCT-15,> 100 µM
same,GI50,NCI-H522,> 100 µM (inactive)
same,GI50,HOP-62,> 100 µM (inactive)
same,GI50,SK-MEL-5,> 100 µM (inactive)
same,GI50,HT-29,> 100 µM (inactive)
same,GI50,M14,> 100 µM (inactive)
same,GI50,OVCAR-4,> 100 µM (inactive)
same,GI50,NCI-H460,> 100 µM (inactive)
same,GI50,Hs-578T,> 100 µM (inactive)
same,GI50,EKVX,> 100 µM (inactive)
same,GI50,A549,> 100 µM (inactive)
same,GI50,SW-620,> 100 µM (inactive)
same,GI50,SK-OV-3,> 100 µM (inactive)
same,GI50,PC-3,> 100 µM (inactive)
same,GI50,OVCAR-8,> 100 µM (inactive)
same,GI50,LOX IMVI,> 100 µM (inactive)
same,GI50,Malme-3M,> 100 µM (inactive)
same,GI50,IGROV-1,> 100 µM (inactive)
same,GI50,SK-MEL-2,> 100 µM (inactive)
same,GI50,MOLT-4,> 100 µM (inactive)
same,GI50,SN12C,> 100 µM (inactive)
same,GI50,COLO 205,> 100 µM (inactive)
same,GI50,ACHN,> 100 µM (inactive)
same,GI50,UACC-62,> 100 µM (inactive)
same,GI50,HOP-92,> 100 µM (inactive)
CC(=O)OCC1OC(n2c(-c3ccccc3)c(/N=N/c3ccc(Cl)cc3)c(C)c(C#N)c2=S)C(OC(C)=O)C(OC(C)=O)C1OC(C)=O (stereo not given),GI50,786-0,19.5 µM (inactive) and 23.9 µM (inactive)
same,GI50,SF-539,14 µM (inactive) and 19.6 µM (inactive)
same,GI50,K562,6.76 µM (inactive) and 11.8 µM (inactive)
same,GI50,HOP-62,15.6 µM (inactive) and 27.8 µM (inactive)
same,GI50,CAKI-1,24.3 µM (inactive) and 14.3 µM (inactive)
same,GI50,TK-10,33.8 µM (inactive) and 24.6 µM (inactive)
same,GI50,Hs-578T,15.8 µM (inactive) and 15.3 µM (inactive)
same,GI50,SW-620,7.01 µM (inactive) and 12.4 µM (inactive)
same,GI50,PC-3,9.4 µM (inactive) and 5.09 µM (inactive)
same,GI50,RXF 393,17.4 µM (inactive) and 13.2 µM (inactive)
same,GI50,MOLT-4,4.91 µM (inactive) and 3.56 µM (inactive)
CC(C)n1c(=O)[nH]n(-c2ccccc2)c1=O,GI50,MDA-MB-231,> 100 µM (inactive)
same,GI50,MCF7,> 100 µM (inactive)
same,GI50,UACC-257,> 100 µM (inactive)
same,GI50,NCI/ADR-RES,> 100 µM (inactive)
same,GI50,SNB-75,> 100 µM (inactive)
same,GI50,KM12,> 100 µM (inactive)
same,GI50,OVCAR-3,> 100 µM (inactive)
same,GI50,UO-31,> 100 µM (inactive)
same,GI50,SR,> 100 µM (inactive)
same,GI50,SF-295,> 100 µM (inactive)
same,GI50,NCI-H226,> 100 µM (inactive)
same,GI50,MDA-MB-435,> 100 µM (inactive)
same,GI50,OVCAR-5,> 100 µM (inactive)
same,GI50,SF-268,> 100 µM (inactive)
same,GI50,786-0,> 100 µM (inactive)
same,GI50,HCT-15,> 100 µM
same,GI50,CCRF-CEM,> 100 µM (inactive)
same,GI50,NCI-H522,> 100 µM (inactive)
same,GI50,SF-539,> 100 µM (inactive)
same,GI50,K562,> 100 µM (inactive)
same,GI50,RPMI-8226,> 100 µM (inactive)
same,GI50,HOP-62,> 100 µM (inactive)
same,GI50,SK-MEL-5,> 100 µM (inactive)
same,GI50,HT-29,> 100 µM (inactive)
same,GI50,MDA-N,> 100 µM (inactive)
same,GI50,NCI-H23,> 100 µM (inactive)
same,GI50,HL-60,> 100 µM (inactive)
same,GI50,HCT-116,> 100 µM (inactive)
same,GI50,CAKI-1,> 100 µM (inactive)
same,GI50,TK-10,> 100 µM (inactive)
same,GI50,M14,> 100 µM (inactive)
same,GI50,OVCAR-4,> 100 µM (inactive)
same,GI50,DU-145,> 100 µM (inactive)
same,GI50,NCI-H460,> 100 µM (inactive)
same,GI50,Hs-578T,> 100 µM (inactive)
same,GI50,EKVX,> 100 µM (inactive)
same,GI50,A498,> 100 µM (inactive)
same,GI50,A549,> 100 µM (inactive)
same,GI50,SK-MEL-28,> 100 µM (inactive)
same,GI50,SW-620,> 100 µM (inactive)
same,GI50,SK-OV-3,> 100 µM (inactive)
same,GI50,PC-3,> 100 µM (inactive)
same,GI50,OVCAR-8,> 100 µM (inactive)
same,GI50,SNB-19,> 100 µM (inactive)
same,GI50,LOX IMVI,> 100 µM (inactive)
same,GI50,Malme-3M,> 100 µM (inactive)
same,GI50,RXF 393,> 100 µM (inactive)
same,GI50,IGROV-1,> 100 µM (inactive)
same,GI50,U-251,> 100 µM (inactive)
same,GI50,SK-MEL-2,> 100 µM (inactive)
same,GI50,MOLT-4,> 100 µM (inactive)
same,GI50,SN12C,> 100 µM (inactive)
same,GI50,COLO 205,> 100 µM (inactive)
same,GI50,ACHN,> 100 µM (inactive)
same,GI50,UACC-62,> 100 µM (inactive)
same,GI50,HOP-92,> 100 µM (inactive)
